Assay results published in ChEMBL document CHEMBL4043074, “Bortezomib inhibits mammalian carbonic anhydrases” (Bioorg Med Chem, 2017).

Key:
[1] = molecular target: Carbonic anhydrase 9 (Homo sapiens, UniProt Q16790)
Description: Inhibition of human CA9 by stopped-flow CO2 hydrase assay

[2] = molecular target: Carbonic anhydrase 1 (Homo sapiens, UniProt P00915)
Description: Inhibition of human CA1 by stopped-flow CO2 hydrase assay

[3] = molecular target: Carbonic anhydrase 2 (Homo sapiens, UniProt P00918)
Description: Inhibition of human CA2 by stopped-flow CO2 hydrase assay

[4] = molecular target: Carbonic anhydrase 12 (Homo sapiens, UniProt O43570)
Description: Inhibition of human CA12 by stopped-flow CO2 hydrase assay

[5] = molecular target: Carbonic anhydrase 4 (Homo sapiens, UniProt P22748); assay: Inhibition of human CA4 by stopped-flow CO2 hydrase assay
[6] = molecular target: Carbonic anhydrase 5A, mitochondrial (Homo sapiens, UniProt P35218); assay: Inhibition of human CA5A by stopped-flow CO2 hydrase assay
[7] = molecular target: Carbonic anhydrase 5B, mitochondrial (Homo sapiens, UniProt Q9Y2D0); assay: Inhibition of human CA5B by stopped-flow CO2 hydrase assay
[8] = molecular target: Carbonic anhydrase 13 (Homo sapiens, UniProt Q8N1Q1); assay: Inhibition of human CA13 by stopped-flow CO2 hydrase assay
[9] = molecular target: Carbonic anhydrase 14 (Homo sapiens, UniProt Q9ULX7); assay: Inhibition of human CA14 by stopped-flow CO2 hydrase assay
[10] = molecular target: Carbonic anhydrase 3 (Homo sapiens, UniProt P07451)
Description: Inhibition of human CA3 by stopped-flow CO2 hydrase assay

[11] = molecular target: Carbonic anhydrase 6 (Homo sapiens, UniProt P23280)
Description: Inhibition of human CA6 by stopped-flow CO2 hydrase assay

[12] = molecular target: Carbonic anhydrase 7 (Homo sapiens, UniProt P43166)
Description: Inhibition of human CA7 by stopped-flow CO2 hydrase assay

[13] = molecular target: T1, Carbonic anhydrase 15 (Mus musculus, UniProt Q99N23)
T1 sequence (Q99N23 whole entry): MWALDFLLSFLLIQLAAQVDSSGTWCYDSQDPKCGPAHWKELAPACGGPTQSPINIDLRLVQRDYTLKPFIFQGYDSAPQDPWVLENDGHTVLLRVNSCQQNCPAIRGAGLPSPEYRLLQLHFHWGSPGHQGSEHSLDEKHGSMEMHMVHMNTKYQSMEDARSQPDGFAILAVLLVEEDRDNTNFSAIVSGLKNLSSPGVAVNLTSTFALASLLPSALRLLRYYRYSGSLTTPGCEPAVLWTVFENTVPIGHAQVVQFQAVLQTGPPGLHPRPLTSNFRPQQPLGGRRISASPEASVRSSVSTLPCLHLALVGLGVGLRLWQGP
Description: Inhibition of mouse CA15 by stopped-flow CO2 hydrase assay

Carbonic anhydrase 12, sequence (O43570 whole entry): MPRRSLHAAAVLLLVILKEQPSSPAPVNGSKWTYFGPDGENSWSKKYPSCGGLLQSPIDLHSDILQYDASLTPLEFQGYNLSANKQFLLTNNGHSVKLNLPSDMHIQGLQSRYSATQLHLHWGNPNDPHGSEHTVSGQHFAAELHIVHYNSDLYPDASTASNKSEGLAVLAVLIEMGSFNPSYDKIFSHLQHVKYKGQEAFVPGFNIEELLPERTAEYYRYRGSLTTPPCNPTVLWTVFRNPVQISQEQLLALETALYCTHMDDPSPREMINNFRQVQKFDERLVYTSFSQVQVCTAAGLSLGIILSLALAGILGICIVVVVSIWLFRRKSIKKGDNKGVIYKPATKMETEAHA
Carbonic anhydrase 14, sequence (Q9ULX7 whole entry): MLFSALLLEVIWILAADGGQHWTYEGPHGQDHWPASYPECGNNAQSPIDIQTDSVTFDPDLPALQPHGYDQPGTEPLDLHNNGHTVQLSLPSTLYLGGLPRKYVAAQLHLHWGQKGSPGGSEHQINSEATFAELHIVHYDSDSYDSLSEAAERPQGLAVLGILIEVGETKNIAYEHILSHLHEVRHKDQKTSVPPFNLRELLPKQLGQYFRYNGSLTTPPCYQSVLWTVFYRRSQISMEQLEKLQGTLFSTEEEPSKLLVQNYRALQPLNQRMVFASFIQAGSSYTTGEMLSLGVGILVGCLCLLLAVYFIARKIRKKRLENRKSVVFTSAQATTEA
Carbonic anhydrase 13, sequence (Q8N1Q1 whole entry): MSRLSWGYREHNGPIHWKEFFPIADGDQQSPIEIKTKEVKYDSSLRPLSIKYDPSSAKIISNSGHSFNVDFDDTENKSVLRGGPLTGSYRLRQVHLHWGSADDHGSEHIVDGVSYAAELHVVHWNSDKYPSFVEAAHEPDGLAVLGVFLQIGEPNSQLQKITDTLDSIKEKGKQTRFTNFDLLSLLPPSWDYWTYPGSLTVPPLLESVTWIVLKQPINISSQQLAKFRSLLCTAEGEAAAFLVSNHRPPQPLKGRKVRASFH
Carbonic anhydrase 5B, mitochondrial, sequence (Q9Y2D0 whole entry): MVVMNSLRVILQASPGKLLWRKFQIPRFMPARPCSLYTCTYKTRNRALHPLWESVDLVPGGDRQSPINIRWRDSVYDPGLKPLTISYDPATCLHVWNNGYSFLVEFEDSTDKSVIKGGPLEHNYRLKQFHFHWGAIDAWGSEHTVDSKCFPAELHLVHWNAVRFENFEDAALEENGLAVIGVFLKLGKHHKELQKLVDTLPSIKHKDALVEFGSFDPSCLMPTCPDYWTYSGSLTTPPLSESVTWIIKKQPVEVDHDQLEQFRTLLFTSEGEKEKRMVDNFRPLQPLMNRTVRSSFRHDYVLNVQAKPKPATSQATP
Carbonic anhydrase 1, sequence (P00915 whole entry): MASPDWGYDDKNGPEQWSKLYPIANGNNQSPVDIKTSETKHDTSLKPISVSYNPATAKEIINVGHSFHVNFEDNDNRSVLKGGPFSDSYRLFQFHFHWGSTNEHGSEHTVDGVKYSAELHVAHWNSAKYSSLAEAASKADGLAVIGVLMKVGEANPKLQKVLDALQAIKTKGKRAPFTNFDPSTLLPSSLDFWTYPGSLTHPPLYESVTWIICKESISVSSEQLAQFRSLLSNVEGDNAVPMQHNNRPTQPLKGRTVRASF
Carbonic anhydrase 5A, mitochondrial, sequence (P35218 whole entry): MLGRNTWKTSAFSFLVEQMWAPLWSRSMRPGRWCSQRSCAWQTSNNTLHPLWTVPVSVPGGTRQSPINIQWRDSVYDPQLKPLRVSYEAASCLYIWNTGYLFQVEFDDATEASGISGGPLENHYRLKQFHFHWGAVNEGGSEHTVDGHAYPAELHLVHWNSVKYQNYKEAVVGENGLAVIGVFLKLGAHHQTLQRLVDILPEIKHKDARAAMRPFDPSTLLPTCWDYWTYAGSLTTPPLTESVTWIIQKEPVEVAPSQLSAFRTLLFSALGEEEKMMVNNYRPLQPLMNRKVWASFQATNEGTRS
Carbonic anhydrase 6, sequence (P23280 whole entry): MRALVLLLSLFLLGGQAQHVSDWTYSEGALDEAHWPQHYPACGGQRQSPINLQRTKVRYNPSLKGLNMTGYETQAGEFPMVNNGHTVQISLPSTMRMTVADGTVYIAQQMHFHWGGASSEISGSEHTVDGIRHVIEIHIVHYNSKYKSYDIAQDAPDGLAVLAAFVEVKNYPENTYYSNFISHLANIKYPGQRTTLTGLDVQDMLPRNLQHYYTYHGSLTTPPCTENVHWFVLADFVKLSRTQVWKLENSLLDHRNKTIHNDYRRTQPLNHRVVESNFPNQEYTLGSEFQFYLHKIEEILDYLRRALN
Carbonic anhydrase 3, sequence (P07451 whole entry): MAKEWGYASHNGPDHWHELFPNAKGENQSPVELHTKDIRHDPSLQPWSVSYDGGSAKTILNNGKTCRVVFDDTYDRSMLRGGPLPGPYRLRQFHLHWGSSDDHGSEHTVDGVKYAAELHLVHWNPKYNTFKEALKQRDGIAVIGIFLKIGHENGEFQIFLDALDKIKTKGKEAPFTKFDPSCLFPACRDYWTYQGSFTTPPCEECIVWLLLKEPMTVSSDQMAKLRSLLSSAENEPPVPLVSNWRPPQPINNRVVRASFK
Carbonic anhydrase 7, sequence (P43166 whole entry): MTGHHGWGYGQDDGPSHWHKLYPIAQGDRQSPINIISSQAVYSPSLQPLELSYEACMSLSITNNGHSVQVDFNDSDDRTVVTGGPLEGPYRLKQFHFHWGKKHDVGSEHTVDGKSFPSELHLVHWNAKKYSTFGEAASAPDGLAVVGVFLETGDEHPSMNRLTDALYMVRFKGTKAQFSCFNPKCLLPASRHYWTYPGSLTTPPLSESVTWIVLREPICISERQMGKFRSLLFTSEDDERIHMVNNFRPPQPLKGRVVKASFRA
Carbonic anhydrase 4, sequence (P22748 whole entry): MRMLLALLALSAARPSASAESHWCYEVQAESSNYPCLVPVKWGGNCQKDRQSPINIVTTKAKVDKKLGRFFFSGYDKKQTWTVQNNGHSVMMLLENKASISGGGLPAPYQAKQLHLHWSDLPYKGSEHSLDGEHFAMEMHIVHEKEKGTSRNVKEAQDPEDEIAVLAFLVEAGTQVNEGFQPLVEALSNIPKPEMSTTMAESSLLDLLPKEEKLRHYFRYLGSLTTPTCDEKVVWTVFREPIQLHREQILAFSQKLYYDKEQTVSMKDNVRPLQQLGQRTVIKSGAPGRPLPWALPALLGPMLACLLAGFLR

Row | Ki [1] | Ki [2] | Ki [3] | Ki [4] | Ki [5] | Ki [6] | Ki [7] | Ki [8] | Ki [9] | Ki [10] | Ki [11] | Ki [12] | Ki [13] | SMILES
1 | > 50 µM | 5.69 µM | 8.18 µM | > 50 µM |  |  |  |  |  |  |  |  |  | OB1OCc2ccccc21 [BENZOXABOROLE]
2 | 3.38 µM |  |  | 5.87 µM | 6.51 µM | 6.92 µM | 6.83 µM | 8.45 µM | 3.28 µM | 4.57 µM | 4.38 µM | 6.94 µM | 2680 nM | CC(C)C[C@H](NC(=O)[C@H](Cc1ccccc1)NC(=O)c1cnccn1)B(O)O [BORTEZOMIB]
3 | > 50 µM | > 50 µM | > 50 µM | > 50 µM |  | > 50 µM | > 50 µM | > 50 µM | > 50 µM | > 50 µM | > 50 µM |  |  | OB(O)c1ccccc1 [PHENYLBORONIC ACID]
